Reference: patent US11760754B2, “Heterocyclic mitochondrial activity inhibitors and uses thereof” (UNIVERSITÉ DE MONTRÉAL, priority 2017, dated 2023)
Like-named read-outs stand apart in the source and are kept apart here.

How the values were obtained:
OCI-AML3 cells = test: OCI-AML3 cell growth inhibition, dose-response viability assay (CellTiterGlo); type: cell-based; details: for EC50: read-out: AML-3 EC50; for sensitivity of OCI-AML3 relative to OCI-AML5: dose-response curves OCI-AML3 and OCI-AML5
Protocol: Cell dose-response viability assays. […] In the initial screen, compounds were added to seeded cells in serial dilutions (10 dilutions, 1:3, starting from […] 20 μM), in duplicates.
(§1) The potency of the compounds of Example 6 at inhibiting OCI-AML3 cell growth was tested using a procedure similar to that described for Mutritinib in Example 1. […] Murine MLL-AF9 leukemia cells (female cells) were generated by infection with VSV-G-pseudotyped MSCV MLL-AF9 IRES Puro (subcloned from a construct by Frédéric Barabé, Laval U, Quebec, QC, Canada).
(§2) Compounds were added to seeded cells in serial dilutions from 10 μM to 0.5 nM, in duplicates or quadruplicates.

MLL-AF9 cells = test: MLL-AF9 leukemia cell growth inhibition, dose-response viability assay (CellTiterGlo); type: cell-based, murine; details: read-out: MLL-AF9 EC50
Protocol: as §1, §2

[1] = Homo sapiens, OCI-AML-3, 144 h, OCI-AML3 cells, 6 days of culture, CellTiterGlo

| Compound | EC50 (OCI-AML3 cells; Homo sapiens, OCI-AML-3, 144 h) [nM] | EC50 (MLL-AF9 cells; Mus musculus, MLL-AF9, 120 h) [nM] | further results |
| --- | --- | --- | --- |
| FC(F)(F)c1ccc(/C=C/c2nc(COc3ccc(CCCCn4ccnn4)cc3)co2)cc1 [Compound 1, (E)-4-((4-(4-(1H-1,2,3-triazol-1-yl)butyl)phenoxy)methyl-2-(4-trifluoromethyl)styryl)oxazole, reference compound] | – | – | EC50 (OCI-AML3 cells; [1]): 100 to 500 nM; EC50 (MLL-AF9 cells; Mus musculus, 120 h, MLL-AF9 cells, 5 days of culture, CellTiterGlo): 50 to 100 nM |
| Fc1cc(Br)ccc1/C=C/c1nc(COc2ccc(CCCCn3ccnn3)cc2)co1 [Compound 3A, (E)-((4-(4-(1H-1,2,3-triazol-1-yl)butyl)phenoxy)methyl)-2-(4-bromo-2-fluorostyryl)oxazole] | – | – | EC50 (OCI-AML3 cells; OCI-AML3 cells, 6 days of culture, CellTiterGlo): < 50 nM; EC50 (MLL-AF9 cells; MLL-AF9 cells, 5 days of culture, CellTiterGlo): < 50 nM |
| C[Si](C)(C)c1cn(CCCCc2ccc(OCc3coc(/C=C/c4ccc(Br)cc4F)n3)cc2)nn1 [Compound 3B, (E)-2-(4-Bromo-2-fluorostyryl)-4-((4-(4-(4-(trimethylsilyl)-1H-1,2,3-triazol-1-yl)butyl)phenoxy)methyl)oxazole] | – | 100 to 500 | EC50 (OCI-AML3 cells; [1]): 500 to 1000 nM |
| CCOC(=O)c1nnn(CCCCc2ccc(OCc3coc(/C=C/c4ccc(C(F)(F)F)cc4)n3)cc2)c1C(=O)OCC [Compound 6, (E)-diethyl 1-(4-(4-((2-(4-(trifluoromethyl)styryl)oxazol-4-yl)methoxy)phenyl)butyl)-1H-1,2,3-triazole-4,5-dicarboxylate] | 1000 to 10000 | 1000 to 10000 | – |
| OCc1nnn(CCCCc2ccc(OCc3coc(/C=C/c4ccc(C(F)(F)F)cc4)n3)cc2)c1CO [Compound 9, (E)-(1-(4-(4-((2-(4-(trifluoromethyl)styryl)oxazol-4-yl)methoxy)phenyl)butyl)-1H-1,2,3-triazole-4,5-diyl)dimethanol] | 1000 to 10000 | 500 to 1000 | – |
| C#CCNC(=O)CCCCc1cn(CCCCc2ccc(OCc3coc(/C=C/c4ccc(C(F)(F)F)cc4)n3)cc2)nn1 [Compound 12, (E)-N-(prop-2-yn-1-yl)-5-(1-(4-(4-((2-(4-(trifluoromethyl)styryl)oxazol-4-yl)methoxy)phenyl)butyl)-1H-1,2,3-triazol-4-yl)pentanamide] | 500 to 1000 | 100 to 500 | – |
| NCCc1cn(CCCCc2ccc(OCc3coc(/C=C/c4ccc(C(F)(F)F)cc4)n3)cc2)nn1 [Compound 13, (E)-2-(1-(4-(4-((2-(4-(trifluoromethyl)styryl)oxazol-4-yl)methoxy)phenyl)butyl)-1H-1,2,3-triazol-4-yl)ethanamine] | 1000 to 10000 | 1000 to 10000 | – |
| OC(CCCn1ccnn1)c1ccc(OCc2coc(/C=C/c3ccc(C(F)(F)F)cc3)n2)cc1 (centres unmarked) [Compound 17, (E)-4-(1H-1,2,3-triazol-1-yl)-1-(4-((2-(4-(trifluoromethyl)styryl)oxazol-4-yl)methoxy)phenyl)butan-1-ol] | 100 to 500 | 50 to 100 | – |
| OC(CCCn1ccnn1)c1ccc(OCc2coc(/C=C/c3ccc(Br)cc3F)n2)cc1 (centres unmarked) [Compound 21, (E)-1-(4-((2-(4-bromo-2-fluorostyryl)oxazol-4-yl)methoxy)phenyl)-4-(1H-1,2,3-triazol-1-yl)butan-1-ol] | 100 to 500 | 50 to 100 | – |
| O=C(CCCn1ccnn1)c1ccc(OCc2coc(/C=C/c3ccc(C(F)(F)F)cc3F)n2)cc1 [Compound 22, (E)-1-(4-((2-(2-fluoro-4-(trifluoromethyl)styryl)oxazol-4-yl)methoxy)phenyl)-4-(1H-1,2,3-triazol-1-yl)butan-1-one] | 500 to 1000 | 100 to 500 | – |
| Fc1cc(C(F)(F)F)ccc1/C=C/c1nc(COc2ccc(CCCCn3cnnc3)cc2)co1 [Compound 135, (E)-4-((4-(4-(4H-1,2,4-triazol-4-yl)butyl)phenoxy)methyl)-2-(2-fluoro-4-(trifluoromethyl)styryl)oxazole] | – | 500 to 1000 | – |
| O=CNCCCCc1ccc(OCc2coc(/C=C/c3ccc(C(F)(F)F)cc3F)n2)cc1 [Compound 136, (E)-N-(4-(4-((2-(2-fluoro-4-(trifluoromethyl)styryl)oxazol-4-yl)methoxy)phenyl)butyl)formamide] | – | 100 to 500 | – |
| O=S1(=O)CCN(CCCCc2ccc(OCc3coc(/C=C/c4ccc(C(F)(F)F)cc4F)n3)cc2)CC1 [Compound 137, (E)-4-(4-(4-((2-(2-fluoro-4-(trifluoromethyl)styryl)oxazol-4-yl)methoxy)phenyl)butyl)thiomorpholine 1,1-dioxide] | – | 500 to 1000 | – |
| COc1cc2c(cc1OC)[C@@H]1C(=O)c3ccc4c(c3O[C@@H]1CO2)C=CC(C)(C)O4 [Deguelin, reference compound] | – | – | sensitivity of OCI-AML3 relative to OCI-AML5 (OCI-AML3 cells): more sensitive than OCI-AML5 |
| CC[C@H]1/C=C/C=C/C[C@@H](C)[C@H](O)[C@@](C)(O)C(=O)[C@@H](C)[C@H](O)[C@@H](C)C(=O)[C@@H](C)[C@H](O)[C@@H](C)/C=C/C(=O)O[C@@H]2[C@H](C)[C@H](CC1)O[C@]1(CC[C@H](C)[C@H](C[C@@H](C)O)O1)[C@H]2C [Oligomycin, reference compound] | – | – | sensitivity of OCI-AML3 relative to OCI-AML5 (OCI-AML3 cells): more sensitive than OCI-AML5 |
| C=C(C)[C@H]1Cc2c(ccc3c2O[C@@H]2COc4cc(OC)c(OC)cc4[C@@H]2C3=O)O1 [Rotenone, reference compound] | – | – | sensitivity of OCI-AML3 relative to OCI-AML5 (OCI-AML3 cells): more sensitive than OCI-AML5 |
| CNC(=O)CN1CCC(Oc2cc3c(Nc4cccc(Cl)c4F)ncnc3cc2OC)CC1 [Sapitinib, reference compound] | – | – | OCI-AML3 cells sensitive to the compound (dose response) (OCI-AML3 cells; OCI-AML3 cells): not |

The next lines start with results.

| EC50 (OCI-AML3 cells; Homo sapiens, OCI-AML-3, 144 h) [nM] | EC50 (MLL-AF9 cells; Mus musculus, MLL-AF9, 120 h) [nM] | Compound | further results |
| --- | --- | --- | --- |
| 100 to 500 | 100 to 500 | FC(F)(F)Oc1ccc(/C=C/c2nc(COc3ccc(CCCCn4ccnn4)cc3)co2)cc1 [Compound 2] | – |
| 1000 to 10000 | 500 to 1000 | OCCc1cn(CCCCc2ccc(OCc3coc(/C=C/c4ccc(C(F)(F)F)cc4)n3)cc2)nn1 [Compound 4, (E)-2-(1-(4-(4-((2-(4-Trifluoromethyl)styryl)oxazol-4-yl)methoxy)phenyl)butyl-1H-1,2,3-triazol-4-yl)ethanol] | – |
| 1000 to 10000 | 100 to 500 | OCCCCc1cn(CCCCc2ccc(OCc3coc(/C=C/c4ccc(C(F)(F)F)cc4)n3)cc2)nn1 [Compound 5] | – |
| 1000 to 10000 | 500 to 1000 | CNCc1cn(CCCCc2ccc(OCc3coc(/C=C/c4ccc(C(F)(F)F)cc4)n3)cc2)nn1 [Compound 7, (E)-N-methyl-1-(1-(4-(4-((2-(4-(trifluoromethyl)styryl)oxazol-4-yl)methoxy)phenyl)butyl)-1H-1,2,3-triazol-4-yl)methanamine] | – |
| 500 to 1000 | 100 to 500 | OC1(c2cn(CCCCc3ccc(OCc4coc(/C=C/c5ccc(C(F)(F)F)cc5)n4)cc3)nn2)CCCC1 [Compound 8, (E)-1-(1-(4-(4-((2-(4-(trifluoromethyl)styryl)oxazol-4-yl)methoxy)phenyl)butyl)-1H-1,2,3-triazol-4-yl)cyclopentanol] | – |
| 100 to 500 | < 50 | O=S1(=O)CCN(Cc2cn(CCCCc3ccc(OCc4coc(/C=C/c5ccc(C(F)(F)F)cc5)n4)cc3)nn2)CC1 [Compound 10, (E)-4-((1-(4-(4-((2-(4-(trifluoromethyl)styryl)oxazol-4-yl)methoxy)phenyl)butyl)-1H-1,2,3-triazol-4-yl)methyl)thiomorpholine 1,1-dioxide] | – |
| 1000 to 10000 | 1000 to 10000 | Fc1cc(C(F)(F)F)ccc1CCc1nc(COc2ccc(CCCCn3ccnn3)cc2)co1 [Compound 11, 4-((4-(4-(1H-1,2,3-triazol-1-yl)butyl)phenoxy)methyl)-2-(2-fluoro-4-(trifluoromethyl)phenethyl)oxazole] | – |
| 1000 to 10000 | 500 to 1000 | C#CCCC(=O)NCCc1cn(CCCCc2ccc(OCc3coc(/C=C/c4ccc(C(F)(F)F)cc4)n3)cc2)nn1 [Compound 14, (E)-N-(2-(1-(4-(4-((2-(4-(trifluoromethyl)styryl)oxazol-4-yl)methoxy)phenyl)butyl)-1H-1,2,3-triazol-4-yl)ethyl)pent-4-ynamide] | – |
| 500 to 1000 | 100 to 500 | O=S1(=O)CCN(Cc2cnnn2CCCCc2ccc(OCc3coc(/C=C/c4ccc(C(F)(F)F)cc4)n3)cc2)CC1 [Compound 15, (E)-4-((1-(4-(4-((2-(4-(trifluoromethyl)styryl)oxazol-4-yl)methoxy)phenyl)butyl)-1H-1,2,3-triazol-5-yl)methyl)thiomorpholine 1,1-dioxide] | – |
| 1000 to 10000 | 100 to 500 | O=C(CCCn1ccnn1)c1ccc(OCc2coc(/C=C/c3ccc(C(F)(F)F)cc3)n2)cc1 [Compound 16, (E)-4-(1H-1,2,3-triazol-1-yl)-1-(4-((2-(4-(trifluoromethyl)styryl)oxazol-4-yl)methoxy)phenyl)butan-1-one] | – |
| 1000 to 10000 | 500 to 1000 | O=C(CCCn1ccnn1)c1ccc(OCc2coc(/C=C/c3ccc(OC(F)(F)F)cc3)n2)cc1 [Compound 18, (E)-4-(1H-1,2,3-triazol-1-yl)-1-(4-((2-(4-(trifluoromethoxy)styryl)oxazol-4-yl)methoxy)phenyl)butan-1-one] | – |
| 100 to 500 | 100 to 500 | OC(CCCn1ccnn1)c1ccc(OCc2coc(/C=C/c3ccc(OC(F)(F)F)cc3)n2)cc1 (centres unmarked) [Compound 19, (E)-4-(1H-1,2,3-triazol-1-yl)-1-(4-((2-(4-(trifluoromethoxy)styryl)oxazol-4-yl)methoxy)phenyl)butan-1-ol] | – |
| 500 to 1000 | 100 to 500 | O=C(CCCn1ccnn1)c1ccc(OCc2coc(/C=C/c3ccc(Br)cc3F)n2)cc1 [Compound 20, (E)-1-(4-((2-(4-bromo-2-fluorostyryl)oxazol-4-yl)methoxy)phenyl)-4-(1H-1,2,3-triazol-1-yl)butan-1-one] | – |
